Measurements: US20060222792A1, “Temozolomide storage system” (CHEMAGIS LTD., priority 2006, published 2006)

Tests used:
Assay type in all cases: physicochemical
[1] = Storage stability of temozolomide in type 3 packaging, purity by HPLC (Example 3); conditions: for Initial purity, % by HPLC: before starting the storage period; for Initial purity, % by HPLC / Purity, % by HPLC after 1 month of storage / Purity, % by HPLC after 2 months of storage / Purity, % by HPLC after 6 month of storage: % area; for Purity, % by HPLC after 1 month of storage / Purity, % by HPLC after 2 months of storage / Purity, % by HPLC after 6 month of storage: warehouse conditions; for Purity, % by HPLC after 6 month of storage: 6 months
Procedure: Analytical measurements of the temozolomide samples were performed using an HPLC system equipped with Phenomenex Synergi™ Fusion-RP C18 column, 250×4.6 mm, and a UV detector operated on 250 nm. Analyses were performed using the following mobile phase, at flow rate of 1.0 ml/minute: Mobile phase: 90% Solution A: 0.02M potassium dihydrogen phosphate buffer (pH 3); 10% Solution B: acetonitrile.
Three different samples of temozolomide were stored at warehouse conditions in a type 3 packaging. A small quantity was taken from each sample after 1, 2 and 6 months and the purity was checked by HPLC and compared to the original HPLC chromatogram of each sample (before starting the storage period). The purity of each sample was obtained as % area by the HPLC chromatogram and compared to the initial purity value (before starting the storage period).

[2] = Colour stability of temozolomide in different drug packaging at warehouse conditions (Example 2)
Description: Exemplary packaging, which can be used in the storage system of the present invention, can include, e.g., packaging type 1, packaging type 2 and/or packaging type 3. When packaging type 1 is used, the temozolomide is preferably contained (e.g., packed or packaged) in a sealed transparent polymeric bag (e.g., a sealed polyethylene bag). When packaging type 2 is used, the temozolomide is preferably contained (e.g., packed or packaged) in a sealed transparent polymeric bag (e.g., a sealed polyethylene bag), which is inserted into another opaque (e.g., black) polymeric bag (e.g., a black polyethylene bag), which is then sealed effectively to prevent penetration of humidity, oxygen and/or light. When packaging type 3 is used, the temozolomide is preferably contained (e.g., packaged or packed) in a sealed transparent polymeric bag (e.g., a sealed polyethylene bag), which is inserted in an opaque (e.g., black) polymeric bag (e.g., a black polyethylene bag), which is then sealed and, in turn, put inside a sealed laminated aluminum bag, which is then sealed. For packaging type 2 and packaging type 3, a desiccant can be interposed (e.g., dispersed) between the two plastic layers (e.g., between the transparent and opaque polymeric bags).
Exemplary packaging for the storage system of the present invention can include packaging type 1, wherein temozolomide is packed and sealed in a transparent polyethylene bag. Exemplary packaging for the storage system of the present invention also can include packaging type 2, wherein temozolomide is packed and sealed in a transparent polyethylene bag, which is inserted into an opaque (e.g., black) polyethylene bag, which is then sealed, wherein the packaging is sealed effectively to prevent penetration of humidity and/or oxygen. Exemplary packaging for the storage system of the present invention also can include packaging type 3, wherein temozolomide is packed and sealed in a transparent polyethylene bag, which is packed in an opaque (e.g., black) polyethylene bag, which is then sealed and, in turn, packed and sealed in a laminated aluminum bag, which is then sealed. In packaging type 2 and in packaging type 3, a desiccant optionally can be interposed (e.g., dispersed) between the two polymeric bags/layers. In accordance with the present invention, each packaging, e.g., packaging type 1, type 2, and/or type 3 as described herein, can be packed under an inert atmosphere (e.g., under a nitrogen atmosphere) or in ambient air. In a preferred embodiment, the storage system of the present invention includes a type 3 packaging with a silica gel desiccant, wherein the packaging is optionally packed and sealed under a nitrogen atmosphere. An exemplary type 3 packaging is described in Example 2, which describes a type 3 packaging containing a silica gel desiccant, optionally under nitrogen atmosphere, which is effective in maintaining the temozolomide white color for long storage periods. […]

[3] = Effect of relative humidity on temozolomide stability, visual colour test in open glass vessel (Example 4)
Procedure: Three samples of temozolomide were stored in an open glass vessel at different relative humidity (RH) conditions for storage periods of up to 3 weeks, after which time the color changes were evaluated.

Initial purity, % by HPLC [1] [%]	Purity, % by HPLC after 1 month of storage ([1]; type 3 packaging) [%]	Purity, % by HPLC after 2 months of storage ([1]; type 3 packaging) [%]	Purity, % by HPLC after 6 month of storage ([1]; type 3 packaging) [%]	Color ([2]; Type 1 at ambient air, storage period 6 weeks, warehouse conditions, initially white)	Color ([2]; Type 3 - the inner bag of entry 2 was left out (sealed) for two more weeks, 6 weeks)	Color ([2]; Type 3 at ambient air containing a desiccant in the inner packaging, 4 weeks, warehouse conditions)	Color ([2]; Type 3 at ambient air containing a desiccant in the inner packaging, 10 weeks, warehouse conditions)	Color ([2]; Type 3 under nitrogen containing a desiccant in the inner packaging, 6 weeks, warehouse conditions)	Color ([2]; Type 3 under nitrogen without desiccant in the inner packaging, 8 weeks, warehouse conditions)	Result of visual test ([3]; RH 20%, 3 weeks)	Result of visual test ([3]; RH 80%, 4 days)	SMILES	Rate of decomposition on storage ([1]; type 3 packaging, wet sample (water about 1.8%) vs dry samples 3417 and 3034 (water less than 0.1%, KF))
97.9	97.3	97.3	96.2	–	–	–	–	–	–	–	–	Cn1nnc2c(C(N)=O)ncn2c1=O [Sample 519, temozolomide]	appeared to decompose at a faster rate than the dry samples
–	–	–	–	pinkish	pinkish	white	white	white	pinkish	White	pink color	Cn1nnc2c(C(N)=O)ncn2c1=O [temozolomide, 8-carbamoyl-3-methyl-imidazo[5,1-d]-1,2,3,5-tetrazin-4(3H)-one]	–
99.7	99.8	99.9	99.7	–	–	–	–	–	–	–	–	Cn1nnc2c(C(N)=O)ncn2c1=O [Sample 3417, temozolomide]	–
99.8	99.7	99.8	99.8	–	–	–	–	–	–	–	–	Cn1nnc2c(C(N)=O)ncn2c1=O [Sample 3034, temozolomide]	–
